{
  "source": "patent US20040042990A1",
  "about": "“Composition containing oxidation-sensitive hydrophilic active principle and maleic anhydride copolymer, and use thereof” (L'OREAL, Paris, France, priority 2002, published 2004)",
  "origin": "cited, not measured here",
  "tested_on": "reconstructed skin",
  "data": [
    {"smiles": "O=C1O[C@H]([C@@H](O)CO)C([O-])=C1OP(=O)([O-])[O-].O=C1O[C@H]([C@@H](O)CO)C([O-])=C1OP(=O)([O-])[O-].[Mg+2].[Mg+2].[Mg+2]", "note": "[magnesium ascorbyl phosphate]", "values": [
      {"measurement": "number of fibroblasts in the lattice", "setting": "reconstructed skin culture medium", "value": "significant increase"},
      {"measurement": "synthesis of proteins of the extracellular matrix (collagens IV and VII, laminin)", "setting": "reconstructed skin, in particular at the dermoepidermal junction", "value": "significant stimulation"}
    ]}
  ]
}
